Data set [1] deals with capsaicin-induced tactile allodynia. Put plainly: Capsaicin-induced secondary allodynia in rat. The conditions noted are these: 30 μmol/kg oral 2 hours prior to capsaicin (20 nmols/50 μl/paw), evaluated 90 min after challenge. It counts as in vivo. Here is the method: Capsaicin-Induced Secondary Allodynia in Rat
Capsaicin (20 nmols/50 μl/paw) was injected in the plantar surface of the glabrous skin of the right paw of rats anesthetized with diethyl ether (Chaplan et al., 1994). Compound V394 was orally administrated (30 μmol/kg) 2 hours prior to capsaicin injection. Tactile allodynia was evaluated 90 min after capsaicin challenge.

For data set [2], the target named is T1, TRPV1 expressing dorsal root ganglia neurons (Rattus norvegicus, UniProt O35433).
T1 construct: Dorsal root ganglia were removed and placed in cold phosphate buffered solution; endogenous in cells; host or cells: primary cultured rat dorsal root ganglia neurons
T1 sequence (O35433 whole entry): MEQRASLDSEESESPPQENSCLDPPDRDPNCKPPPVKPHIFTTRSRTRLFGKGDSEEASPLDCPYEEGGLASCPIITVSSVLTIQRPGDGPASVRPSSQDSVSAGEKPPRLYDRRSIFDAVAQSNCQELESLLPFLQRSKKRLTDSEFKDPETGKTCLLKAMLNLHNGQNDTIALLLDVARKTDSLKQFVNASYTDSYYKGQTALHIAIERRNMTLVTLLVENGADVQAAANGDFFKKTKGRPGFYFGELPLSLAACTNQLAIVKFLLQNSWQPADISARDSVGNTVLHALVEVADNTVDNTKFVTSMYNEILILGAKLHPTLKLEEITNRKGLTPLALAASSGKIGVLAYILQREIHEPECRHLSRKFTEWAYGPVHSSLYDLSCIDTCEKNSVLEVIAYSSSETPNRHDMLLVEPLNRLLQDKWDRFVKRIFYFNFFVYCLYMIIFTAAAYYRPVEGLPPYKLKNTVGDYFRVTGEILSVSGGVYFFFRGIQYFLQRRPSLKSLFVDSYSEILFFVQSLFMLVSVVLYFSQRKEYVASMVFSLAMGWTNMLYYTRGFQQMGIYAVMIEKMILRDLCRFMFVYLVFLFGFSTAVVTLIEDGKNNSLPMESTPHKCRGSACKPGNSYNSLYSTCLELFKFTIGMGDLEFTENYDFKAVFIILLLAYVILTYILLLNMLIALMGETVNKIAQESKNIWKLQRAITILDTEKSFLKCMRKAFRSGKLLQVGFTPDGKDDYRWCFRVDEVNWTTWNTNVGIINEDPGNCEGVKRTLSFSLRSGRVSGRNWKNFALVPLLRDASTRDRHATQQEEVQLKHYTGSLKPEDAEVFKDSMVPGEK
Nature of the data set: Ca2+ fluorescence measurements in cultured rat dorsal root ganglia neurones. Format: cell-based. The conditions noted are these: 0.1 μM capsaicin, mean and 95% fiducial limits, read-out: IC50 for inhibition of capsaicin-evoked [Ca2+]i mobilization. Here is the method:
Ca^2+ Fluorescence Measurements in Cultured Rat Dorsal Root Ganglia Neurones
Adults rats were terminally anaesthetized and decapitated. Dorsal root ganglia were removed and placed in cold phosphate buffered solution (PBS) before being transferred to collagenase (10 mg/ml), trypsin (5 mg/ml) and DNAse (1 mg/ml) for 35 min at 37° C. The ganglia, placed in cold DMEM supplemented with 10% fetal bovine serum, 2 mM L-glutamine, 100 U/ml penicillin and 100 μg/ml streptomycin, were dissociated in single cells by several passages through a series of syringe needles (23 G down to 25 G). The medium and the ganglia were filtered to remove debris, topped up with 8 ml of DMEM medium and centrifuged (200×g for 5 min). The final cell pellet was re-suspended in DMEM medium [supplemented with 100 ng/ml mouse Nerve Growth Factor (mouse-NGF-7S) and cytosine-β-D-arabinofuranoside free base (ARA-C) 2.5 μM]. […] Fura-2-AM-ester was excited at […] to indicate relative [Ca^2+]i changes by the F340/F380 ratio recorded with a dynamic image analysis system (Laboratory Automation 2.0, RCS, Florence, Italy) and the cells were allowed (at least 10 min) to attain a stable fluorescence before beginning the experiment. […]

In data set [3] the target is T2, TRPV1 expressed in rat spinal cord (Rattus norvegicus, UniProt O35433).
T2 construct: TRPV1 expressed in rat spinal cord; from tissue; host or cells: rat (Sprague-Dawley) spinal cord membranes
T2 sequence (O35433 whole entry): as above
Nature of the data set: Radioligand binding assay, [3H]-RTX, rat spinal cord membranes. The protocol: Radioligand Binding Assay
Male Sprague-Dawley rats with body weight between 250 to 350 g at the time for testing were used. For binding assays rats were sacrificed by decapitation under anesthesia and the spinal cord was removed and disrupted using a Polytron tissue homogenizer in ice cold buffer containing 5 mM KCl, 5.8 mM NaCl, 0.75 mM CaCl2, 2 mM MgCl2, 320 mM sucrose, 10 mM Hepes, pH 8.6.^5 The homogenized tissue was centrifuged at 1000×g for 10 min at 4° C. and the supernatant was centrifuged again at 35000×g for 30 min at 4° C. (Beckman Avanti J25). The pellet was resuspended in the same buffer as described above and used in binding experiments. In saturation experiments, 150 μg protein/sample from membrane suspensions were incubated with [^3H]-Resiniferatoxin ([^3H]-RTX) (0.003-3 nM) in the assay buffer containing 0.25 mg/ml fatty acid-free bovine serum albumin at 37° C. for 60 min. […]
Non specific binding was evaluated in the presence of 1 μM RTX. […] The tip of the microcentrifuge tube containing the pellet was cut off and the radioactivity was determined by scintillation counting (Packard 2500 TR). Protein concentration was determined according to a Bio-Rad method with bovine serum albumin as a standard reference (Bradford, 1976). Saturation and competition studies were analyzed with the Ligand program.^6

Each structure is given as a SMILES string.

For the molecule `O=C(Nc1ccc(Cl)cc1)c1ccc(-c2cccc3cnccc23)nc1` [V394, N-(4-chlorophenyl)-6-(isoquinolin-5-yl)pyridine-3-carboxamide], the melting point is 258 °C. The “preventive effect against the pro-allodinic effect of capsaicin” value in data set [1] amounted to 55%. Moreover, the IC50 in data set [2] worked out at 0.83 nM. The Ki in data set [3] ([3H]RTX 0.4 nM, 37° C. 60 min, 95% fiducial limits in brackets, read-out: Ki value, competition binding of [3H]-RTX) worked out at 15 nM.

With `C=C(C)[C@]12C[C@@H](C)[C@@]34O[C@](Cc5ccccc5)(O[C@@H]1[C@@H]3C=C(COC(=O)Cc1ccc(O)c(OC)c1)C[C@]1(O)C(=O)C(C)=C[C@@H]41)O2` [[^3H]-RTX, [^3H]-Resiniferatoxin, reference compound], the Kd in data set [3] (saturation experiments, [3H]-RTX 0.003-3 nM, read-out: KD value, saturation curve of [3H]-RTX) came out at 0.21 nM.

These data come from patent US8222275B2, “Biarylcarboxyarylamides as vanilloid-1 receptor modulators” (Pharmeste S.R.L., priority 2006, dated 2012).
